Measured values from patent US8586617B2, “Aminomethyl-4-imidazoles” (Hoffmann-La Roche Inc., priority 2006, dated 2013).

Target: TAAR1 (Mus musculus (Mouse), UniProt Q923Y8)
Test: TAAR1 radioligand binding assay ([3H]-rac-2-(1,2,3,4-tetrahydro-1-naphthyl)-2-imidazoline, membranes of stably transfected HEK293 cells)
Settings: read-out: Ki (μM) mouse; mouse TAAR1; radioligand [3H]-rac-2-(1,2,3,4-tetrahydro-1-naphthyl)-2-imidazoline at 60 nM; 4° C., 30 minutes
Method: The ability of the compounds of the present invention to bind to TAAR1 was investigated in accordance with the test given hereinafter.
For the generation of stably transfected cell lines HEK293 cells were transfected with the pIRESneo2 expression plasmids containing the TAAR coding sequences (described above) with Lipofectamine 2000 (Invitrogen) according to the instructions of the manufacturer, and 24 hours post transfection the culture medium was supplemented with 1 mg/ml G418 (Sigma, Buchs, Switzerland). After a culture period of about 10 days, clones were isolated, expanded and tested for responsiveness to trace amines (all compounds purchased from Sigma) with the cAMP Biotrak Enzyme immunoassay (EIA) System (Amersham) following the non-acetylation EIA procedure provided by the manufacturer.
Cells at confluence were rinsed with ice-cold phosphate buffered saline without Ca^2+ and Mg^2+ containing 10 mM EDTA and pelleted by centrifugation at 1000 rpm for 5 min at 4° C. The pellet was then washed twice with ice-cold phosphate buffered saline and cell pellet was frozen immediately by immersion in liquid nitrogen and stored until use at −80° C. The cell pellet was then suspended in 20 ml HEPES-NaOH (20 mM), pH 7.4 containing 10 mM EDTA, and homogenized with a Polytron (PT 3000, Kinematica) at 10,000 rpm for 10 seconds. The homogenate was centrifuged at 48,000×g for 30 minutes at 4° C. and the pellet resuspended in 20 ml HEPES-NaOH (20 mM), pH 7.4 containing 0.1 mM EDTA (buffer A), and homogenized with a Polytron at 10,000 rpm for 10 seconds. The homogenate was then centrifuged at 48,000×g for 30 minutes at 4° C. and the pellet resuspended in 20 ml buffer A, and homogenized with a Polytron at 10,000 rpm for 10 seconds. […] The homogenate was then centrifuged at 48,000×g for 10 minutes at 4° C., resuspended in HEPES-NaOH (20 mM), pH 7.0 including MgCl2 (10 mM) and CaCl2 (2 ml) (buffer B) at 200 μg protein per ml and homogenized with a Polytron at 10,000 rpm for 10 seconds.
Binding assay was performed at 4° C. in a final volume of 1 ml, and with an incubation time of 30 minutes. […] Non-specific binding was defined as the amount of [^3H]-rac-2-(1,2,3,4-tetrahydro-1-naphthyl)-2-imidazoline bound in the presence of the appropriate unlabelled ligand (10 μM). Competing ligands were tested in a wide range of concentrations (10 pM-30 μM). […] Each experiment was performed in duplicate. All incubations were terminated by rapid filtration through UniFilter-96 plates (Packard Instrument Company) and glass filter GF/C, pre-soaked for at least 2 h in polyethylenimine 0.3%, and using a Filtermate 96 Cell Harvester (Packard Instrument Company). The tubes and filters were then washed 3 times with 1 ml aliquots of cold buffer B. Filters were not dried and soaked in Ultima gold (45 D/well, Packard Instrument Company) and bound radioactivity was counted by a TopCount Microplate Scintillation Counter (Packard Instrument Company).

TAAR1, sequence (Q923Y8 whole entry): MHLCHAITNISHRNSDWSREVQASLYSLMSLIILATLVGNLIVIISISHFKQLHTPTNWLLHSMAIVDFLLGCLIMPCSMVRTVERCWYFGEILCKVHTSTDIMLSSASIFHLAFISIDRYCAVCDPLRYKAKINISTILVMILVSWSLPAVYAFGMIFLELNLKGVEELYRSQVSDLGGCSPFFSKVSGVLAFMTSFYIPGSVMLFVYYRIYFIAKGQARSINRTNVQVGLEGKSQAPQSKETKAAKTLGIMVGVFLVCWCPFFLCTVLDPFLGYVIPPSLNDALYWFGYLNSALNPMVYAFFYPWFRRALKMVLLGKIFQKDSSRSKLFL

CCN(Cc1cnc[nH]1)c1cccc(C)c1 [Example 6, Ethyl-(3H-imidazol-4-ylmethyl)-m-tolyl-amine] was tested, and the Ki was 0.0018 µM.

Molecule CN(Cc1cnc[nH]1)c1ccc(Cl)cc1 [Example 10, (4-Chloro-phenyl)-(3H-imidazol-4-ylmethyl)-methyl-amine] has a Ki of 0.0045 µM.

Molecule Clc1cccc(N(Cc2cnc[nH]2)Cc2ccccc2Cl)c1 [Example 18, (2-Chloro-benzyl)-(3-chloro-phenyl)-(1H-imidazol-4-ylmethyl)-amine] has a Ki of 0.0039 µM.

Clc1cccc(CN(Cc2cnc[nH]2)c2cccc(Cl)c2)c1 [Example 19, (3-Chloro-benzyl)-(3-chloro-phenyl)-(1H-imidazol-4-ylmethyl)-amine] showed a Ki of 0.0077 µM.

Clc1ccc(CN(Cc2cnc[nH]2)c2cccc(Cl)c2)cc1 [Example 20, (4-Chloro-benzyl)-(3-chloro-phenyl)-(1H-imidazol-4-ylmethyl)-amine] gave a Ki of 0.0059 µM.

Clc1cccc(N(Cc2ccccc2)Cc2cnc[nH]2)c1 [Example 21, Benzyl-(3-chloro-phenyl)-(1H-imidazol-4-ylmethyl)-amine] gave a Ki of 0.0078 µM.

Work on CC(C)N(Cc1cnc[nH]1)c1cc(Cl)cc(Cl)c1 [Example 24, (3,5-Dichloro-phenyl)-(3H-imidazol-4-ylmethyl)-isopropyl-amine] yielded a Ki of 0.001 µM.

Cc1cccc(N(Cc2cnc[nH]2)C(C)C)c1 [Example 26, (3H-Imidazol-4-ylmethyl)-isopropyl-m-tolyl-amine] showed a Ki of 0.0034 µM.

Molecule CC(C)N(Cc1cnc[nH]1)c1cccc(C(F)(F)F)c1 [Example 27, (3H-Imidazol-4-ylmethyl)-isopropyl-(3-trifluoromethyl-phenyl)-amine] has a Ki of 0.0023 µM.

With CC(C)N(Cc1cnc[nH]1)c1ccc(Cl)c(C(F)(F)F)c1 [Example 31, (4-Chloro-3-trifluoromethyl-phenyl)-(3H-imidazol-4-ylmethyl)-isopropyl-amine] the Ki was 0.0045 µM.

CC(C)N(Cc1cnc[nH]1)c1ccc(OC(F)(F)F)c(Cl)c1 [Example 33, (3-Chloro-4-trifluoromethoxy-phenyl)-(3H-imidazol-4-ylmethyl)-isopropyl-amine] gave a Ki of 0.0028 µM.

Clc1cccc(N(Cc2cnc[nH]2)CC2CC2)c1 [Example 51, (3-Chloro-phenyl)-cyclopropylmethyl-(3H-imidazol-4-ylmethyl)-amine] was tested, and the Ki was 0.0009 µM.

CC(C1CC1)N(Cc1cnc[nH]1)c1cccc(Cl)c1 (stereo not shown) [Example 52, (3-Chloro-phenyl)-(1-cyclopropylethyl)-(3H-imidazol-4-ylmethyl)-amine] was tested, and the Ki was 0.004 µM.

CC(C)N(Cc1cnc[nH]1)c1ccc(F)c(Cl)c1 [Example 53, (3-Chloro-4-fluoro-phenyl)-(3H-imidazol-4-ylmethyl)-isopropyl-amine] showed a Ki of 0.0015 µM.

CCN(Cc1cnc[nH]1)c1ccc(Cl)cc1 [Example 57, (4-Chloro-phenyl)-ethyl-(3H-imidazol-4-ylmethyl)-amine] was tested, and the Ki was 0.0014 µM.

Work on CCN(Cc1cnc[nH]1)c1ccc(F)c(F)c1 [Example 58, (3,4-Difluoro-phenyl)-ethyl-(3H-imidazol-4-ylmethyl)-amine] yielded a Ki of 0.0014 µM.

Work on CC(C)N(Cc1cnc[nH]1)c1ccc(OC(F)(F)F)cc1 [Example 67, (3H-Imidazol-4-ylmethyl)-isopropyl-(4-trifluoromethoxy-phenyl)-amine] yielded a Ki of 0.0067 µM.

For CC(C)N(Cc1cnc[nH]1)c1ccc2ccccc2c1 [Example 70, (3H-Imidazol-4-ylmethyl)-isopropyl-naphthalen-2-yl-amine], the Ki was 0.0082 µM.

CC(C)N(Cc1cnc[nH]1)c1ccc2c(c1)CCC2 [Example 73, (3H-Imidazol-4-ylmethyl)-indan-5-yl-isopropyl-amine] was tested, and the Ki was 0.0055 µM.

CC(C)N(Cc1cnc[nH]1)c1cc(F)cc(Cl)c1 [Example 76, (3-Chloro-5-fluoro-phenyl)-(3H-imidazol-4-ylmethyl)-isopropyl-amine] was tested, and the Ki was 0.0011 µM.

CC(C)N(Cc1cnc[nH]1)c1ccc(F)c(F)c1 [Example 77, (3,4-Difluoro-phenyl)-(3H-imidazol-4-ylmethyl)-isopropyl-amine] was tested, and the Ki was 0.0053 µM.

CC(C)N(Cc1cnc[nH]1)c1cc(Cl)ccc1F [Example 78, (5-Chloro-2-fluoro-phenyl)-(3H-imidazol-4-ylmethyl)-isopropyl-amine] showed a Ki of 0.0052 µM.

Molecule CCN(Cc1cnc[nH]1)c1cccc(Cl)c1F [Example 81, (3-Chloro-2-fluoro-phenyl)-ethyl-(3H-imidazol-4-ylmethyl)-amine] has a Ki of 0.0036 µM.

In the case of CCN(Cc1cnc[nH]1)c1ccc2ccccc2c1 [Example 82, Ethyl-(3H-imidazol-4-ylmethyl)-naphthalen-2-yl-amine], the Ki is reported as 0.0012 µM.

Work on CC(C)N(Cc1cnc[nH]1)c1cc(F)cc(F)c1 [Example 101, (3,5-Difluoro-phenyl)-(3H-imidazol-4-ylmethyl)-isopropyl-amine] yielded a Ki of 0.003 µM.

COc1c(F)ccc(N(Cc2cnc[nH]2)C(C)C)c1F [Example 102, (2,4-Difluoro-3-methoxy-phenyl)-(3H-imidazol-4-ylmethyl)-isopropyl-amine] was tested, and the Ki was 0.006 µM.

Cc1cc(N(Cc2cnc[nH]2)C(C)C)ccc1F [Example 109, (4-Fluoro-3-methyl-phenyl)-(3H-imidazol-4-ylmethyl)-isopropyl-amine] gave a Ki of 0.0041 µM.

With CC(C)Oc1cccc(N(Cc2cnc[nH]2)C(C)C)c1 [Example 110, (3H-Imidazol-4-ylmethyl)-(3-isopropoxy-phenyl)-isopropyl-amine] the Ki was 0.0067 µM.

Work on CC(C)N(Cc1cnc[nH]1)c1cccc(OCc2ccccc2)c1 [Example 114, (3-Benzyloxy-phenyl)-(3H-imidazol-4-ylmethyl)-isopropyl-amine] yielded a Ki of 0.0041 µM.

CC(C)N(Cc1cnc[nH]1)c1cccc(OC(F)(F)F)c1 [Example 115, (3H-Imidazol-4-ylmethyl)-isopropyl-(3-trifluoromethoxy-phenyl)-amine] gave a Ki of 0.009 µM.

CC(C)N(Cc1cnc[nH]1)c1cccc(Oc2ccccc2)c1 [Example 123, (3H-Imidazol-4-ylmethyl)-isopropyl-(3-phenoxy-phenyl)-amine] gave a Ki of 0.0021 µM.

For CC(C)N(Cc1cnc[nH]1)c1cccc(OC(F)(F)C(F)F)c1 [Example 125, (3H-Imidazol-4-ylmethyl)-isopropyl-[3-(1,1,2,2-tetrafluoro-ethoxy)-phenyl]-amine], the Ki was 0.0044 µM.

Molecule Cc1ccc(N(Cc2cnc[nH]2)C(C)C)cc1Cl [Example 128, (3-Chloro-4-methyl-phenyl)-(1H-imidazol-4-ylmethyl)-isopropyl-amine] has a Ki of 0.0023 µM.

For CCN(Cc1cnc[nH]1)c1ccc(C)c(C)c1 [Example 130, (3,4-Dimethyl-phenyl)-ethyl-(1H-imidazol-4-ylmethyl)-amine], the Ki was 0.0039 µM.

Molecule CC(C)N(Cc1cnc[nH]1)c1ccc(OCc2ccccc2)c(Cl)c1 [Example 133, (4-Benzyloxy-3-chloro-phenyl)-(1H-imidazol-4-ylmethyl)-isopropyl-amine] has a Ki of 0.0077 µM.

In the case of CCN(Cc1cnc[nH]1)c1ccc(Oc2ccc(Cl)cc2)c(Cl)c1 [Example 139, [3-Chloro-4-(4-chloro-phenoxy)-phenyl]-ethyl-(1H-imidazol-4-ylmethyl)-amine], the Ki is reported as 0.0039 µM.

Work on CC(C)N(Cc1cnc[nH]1)c1cccc(Cc2ccccc2)c1 [Example 141, (3-Benzyl-phenyl)-(3H-imidazol-4-ylmethyl)-isopropyl-amine] yielded a Ki of 0.0015 µM.

CC(C)N(Cc1cnc[nH]1)c1cccc(-c2ccccc2)c1 [Example 142, Biphenyl-3-yl-(3H-imidazol-4-ylmethyl)-isopropyl-amine] was tested, and the Ki was 0.0079 µM.

Molecule CC(C)N(Cc1cnc[nH]1)c1cccc(Oc2ccc(Cl)cc2)c1 [Example 149, [3-(4-Chloro-phenoxy)-phenyl]-(3H-imidazol-4-ylmethyl)-isopropyl-amine] has a Ki of 0.0082 µM.

c1ccc(Nc2ccc(NCc3cnc[nH]3)cc2)cc1 [Example 155, N-(1H-Imidazol-4-ylmethyl)-N′-phenyl-benzene-1,4-diamine] gave a Ki of 0.0094 µM.

Molecule CC(C)N(Cc1cnc[nH]1)c1ccc(F)c(Br)c1 [Example 170, (3-Bromo-4-fluoro-phenyl)-(3H-imidazol-4-ylmethyl)-isopropyl-amine] has a Ki of 0.0025 µM.

For CN(Cc1cnc[nH]1)c1cccc(Oc2ccccc2)c1 [Example 175, (3H-Imidazol-4-ylmethyl)-methyl-(3-phenoxy-phenyl)-amine], the Ki was 0.0036 µM.

In the case of Fc1cc(Cl)cc(NCc2cnc[nH]2)c1 [Example 179, (3-Chloro-5-fluoro-phenyl)-(1H-imidazol-4-ylmethyl)-amine], the Ki is reported as 0.0026 µM.

Fc1cc(NCc2cnc[nH]2)ccc1Br [Example 181, (4-Bromo-3-fluoro-phenyl)-(1H-imidazol-4-ylmethyl)-amine] was tested, and the Ki was 0.0098 µM.

Fc1ccc(NCc2cnc[nH]2)cc1Br [Example 183, (3-Bromo-4-fluoro-phenyl)-(3H-imidazol-4-ylmethyl)-amine] gave a Ki of 0.0051 µM.

COc1cccc(N(C)Cc2cnc[nH]2)c1 [Example 186, (3H-Imidazol-4-ylmethyl)-(3-methoxy-phenyl)-methyl-amine] gave a Ki of 0.0089 µM.

CCN(Cc1cnc[nH]1)c1cccc(Oc2ccccc2)c1 [Example 188, Ethyl-(3H-imidazol-4-ylmethyl)-(3-phenoxy-phenyl)-amine] showed a Ki of 0.0024 µM.

Work on CN(Cc1cnc[nH]1)c1cccc(OC(F)F)c1 [Example 189, (3-Difluoromethoxy-phenyl)-(3H-imidazol-4-ylmethyl)-methyl-amine] yielded a Ki of 0.0068 µM.

For CN(Cc1cnc[nH]1)c1cccc(OCc2ccccc2)c1 [Example 190, (3-Benzyloxy-phenyl)-(3H-imidazol-4-ylmethyl)-methyl-amine], the Ki was 0.0014 µM.

With CCN(Cc1cnc[nH]1)c1cccc(OCc2ccccc2)c1 [Example 192, (3-Benzyloxy-phenyl)-ethyl-(3H-imidazol-4-ylmethyl)-amine] the Ki was 0.001 µM.

Molecule CCN(Cc1cnc[nH]1)c1cccc(OC)c1 [Example 193, Ethyl-(3H-imidazol-4-ylmethyl)-(3-methoxy-phenyl)-amine] has a Ki of 0.008 µM.

With CCN(Cc1cnc[nH]1)c1ccc(F)c(OC)c1 [Example 194, Ethyl-(4-fluoro-3-methoxy-phenyl)-(3H-imidazol-4-ylmethyl)-amine] the Ki was 0.0048 µM.
